From patent US9211485B2, “Method for producing crystalline active ingredient particles” (Jesalis Pharma GmbH, priority 2010, dated 2015) come the findings set out here.

Holding throughout (assay type): physicochemical
The nature of data set [1]: Agglomeration factor: d90 (Ultra Turrax stirrer) / d90 (ultrasound sonotrode). As to conditions: d90(agglomerated particles)/d90(non-agglomerated particles). The text has this:
The degree of agglomeration of the crystallized active ingredient particles is described by the agglomeration factor (AGF). This is defined by the quotient of the diameter of the agglomerated particles and of the diameter of the non-agglomerated particles. This method is most informative for agglomeration when comparing the d90 values. The agglomeration factor within the meaning of the present invention is therefore defined as follows: Agglomeration factor=d90(agglomerated particles)/d90(non-agglomerated particles)
These two d90 values are determined by different energy input into the sample to be tested.
With a high input of energy, existing agglomerates decompose and the following particle size measurement delivers the d90 of the non-agglomerated particles. […]
With a low energy input on the other hand agglomerates are largely spared and the following particle size measurement delivers the d90(agglomerated particles). […] The thus-obtained suspension is added dropwise accompanied by stirring to the measuring vessel which contains filtered surfactant solution, until the obscuration reaches 10% and the particle size distribution is determined by the above-described laser diffraction. An average value is determined from five measurements. […]

Data set [2] is described as follows: Crystallinity by X-ray powder diffractometry (XRPD) relative to a reference material. As to conditions: relative to reference sample. On the procedure:
The crystallinity is determined by means of X-ray powder diffractometry (XRPD) (apparatus: Siemens D8, fixed sample position). After background correction the integral intensities in the X-ray diffractogram are compared with those of a reference material. This reference material can for example be a conventional precipitation product or a product according to a different production method with known crystallinity and granulation. Thus the crystallinity is a relative value which characterizes the degree of order compared with a reference sample. The relationship of the integral reflex intensities of particle sample and reference sample is therefore the quantitative expression of its difference in crystallinity.

Data set [3] can be described thus: Particle size distribution by laser diffraction, wet measurement (Malvern Mastersizer E). As to conditions: for d50 / d90 / d10: dried product, laser diffraction wet measurement; for d50: average particle size; for d10: vol.-%; for span: span=(d90−d10)/d50. On the procedure:
The particle size and the particle size distribution (grain-size distribution) are determined with the help of a customary laser diffraction in a wet measurement which delivers a distribution curve of the particle sizes (Malvern System, Mastersizer E, wet measurement in the cuvette). dx means that x volume percent (vol.-%) of the particles have a diameter which is smaller than the given value. With a d50 value of 1 μm 50 vol.-% of the particles thus have a diameter of less than 1 μm (micrometer). The d50 value is a measure of the average (volume average) particle diameter and is therefore also called average particle diameter. With a d10 of 15 μm and a d90 of 50 μm 10 vol.-% of the particles have a diameter of less than 15 μm and 90 vol.-% of the particles have a diameter of less than 50 μm.
Sample preparation for wet measurement of the particle size and particle size distribution: 12.5 mg sample is dispersed in 25 ml aqueous surfactant solution (0.1% Tween 80 in water, saturated with active ingredient and filtered over a 0.2 μm filter) by means of ultrasound sonotrode (Hielscher, d=7 mm, 30% output) for 4 min. The thus-obtained suspension is added dropwise, accompanied by stirring, to the measuring vessel which contains filtered surfactant solution, until the obscuration (clouding) reaches 10% and the particle size distribution is determined by the above-described laser diffraction. An average value is determined from five measurements.
An advantage of the method according to embodiments of the invention is the generation of a very narrow particle size distribution. Additionally, largely agglomerate-free particles are obtained. This is achieved by the synchronous counterrotation of destructive grinding and ultrasound processes on the one hand and constructive crystal growth on the other hand. In the region of coarse grain sizes and agglomerates, above all the disintegration effect (grinding process and ultrasound) acts primarily in the direction of a reduction, and in the fine-grain region the crystal growth acts in the direction of an increase in the particle size. Thus, very narrow particle size distributions are achieved. The width of a particle size distribution (span) is defined as follows: span=(d90−d10)/d50.

Take `CC(=O)[C@H]1CC[C@H]2[C@@H]3CCC4=CC(=O)CC[C@]4(C)[C@H]3CC[C@]12C` [Example 1, progesterone]: the “AGF (agglomeration factor)” value in data set [1] was 1.3. The molecule also displayed a crystallinity in data set [2] of 100%. Besides, in data set [3], the d50 is reported as 34 μm, the d90 is on record as 64 μm, the d10 came out at 12 μm and the span was 1.5.
In the case of `CC(=O)[C@H]1CC[C@H]2[C@@H]3CCC4=CC(=O)CC[C@]4(C)[C@H]3CC[C@]12C` [Example 2, progesterone], in data set [1], the “AGF (agglomeration factor)” value is 1.1. For the same molecule, the crystallinity in data set [2] is given as 100%. In data set [3], this molecule gave a d50 of 26 μm, a d90 of 45 μm, a d10 of 10 μm and a span of 1.3.
